{"source": "patent US20140221346A1", "about": "“THERAPEUTIC COMPOUNDS” (Gilead Sciences, Inc., priority 2013, published 2014)", "key": {"HIV-IIIb": {"system": "HIV-IIIb", "assay": "Test A: Antiviral Assay in MT4 Cells", "type": "cell-based, HIV-1", "settings": "Human immunodeficiency virus 1, IIIB, MT4, 120 h, read-out: % inhibition at 3 μM", "description": "(§1) For the antiviral assay, 40 μL of 1× test concentration of 3-fold serially diluted compound in culture medium with 10% FBS was added to each well of a 384-well plate (10 concentrations) in quadruplicate. MT-4 cells were next mixed with HIV-IIIb at an m.o.i of 0.003 for 1 hour, after which time 35 μL of virus/cell mixture (2000 cells) was immediately added to each well containing 40 μL of diluted compound. The plates were then incubated at 37° C. for 5 days. After 5 days of incubation, 25 μl of 2× concentrated CellTiter-Glo™ Reagent (catalog #G7571, Promega Biosciences, Inc., Madison, Wis.) was added to each well containing MT-4 cells. Cell lysis was carried out by incubating at room temperature for 10 min and then chemiluminescence was read."}, "[1]": {"assay": "Test B: Cytotoxicity Assay", "type": "cell-based", "settings": "human, uninfected MT-4 cells, same protocol as Test A, CellTiter-Glo", "description": "as §1\nCompound cytotoxicity and the corresponding CC50 values was determined using the same protocol as described in the antiviral assay (Test A) except that uninfected cells were used."}}, "data": [{"smiles": "CN(C)CCNc1ncc(-c2ccc(F)c(C(N)=O)c2)c([C@H](Cc2cc(F)cc(F)c2)NC(=O)Cn2nc(C(F)F)c3c2C(F)(F)CCC3(F)F)n1", "note": "[Compound 16B, (S)-5-(4-(1-(2-(3-(difluoromethyl)-4,4,7,7-tetrafluoro-4,5,6,7-tetrahydro-1H-indazol-1-yl)acetamido)-2-(3,5-difluorophenyl)ethyl)-2-((2-(dimethylamino)ethyl)amino)pyrimidin-5-yl)-2-fluorobenzamide]", "values": [{"measurement": "inhibition at 3 µM", "setting": "HIV-IIIb", "value": 41, "unit": "%"}, {"measurement": "CC50 at 5 days", "setting": "[1]", "value": 15.4, "unit": "µM"}]}, {"smiles": "NC(=O)c1cc(-c2cnc(NCCN3CCCC3=O)nc2[C@H](Cc2cc(F)cc(F)c2)NC(=O)Cn2nc(C(F)F)c3c2C(F)(F)CCC3(F)F)ccc1F", "note": "[Compound 24, (S)-5-(4-(1-(2-(3-(difluoromethyl)-4,4,7,7-tetrafluoro-4,5,6,7-tetrahydro-1H-indazol-1-yl)acetamido)-2-(3,5-difluorophenyl)ethyl)-2-((2-(2-oxopyrrolidin-1-yl)ethyl)amino)pyrimidin-5-yl)-2-fluorobenzamide]", "values": [{"measurement": "inhibition at 3 µM", "setting": "HIV-IIIb", "value": 79, "unit": "%"}, {"measurement": "CC50 at 5 days", "setting": "[1]", "value": 37.2, "unit": "µM"}]}, {"smiles": "NC(=O)c1cc(-c2cnc(N3CCC(=O)CC3)nc2[C@H](Cc2cc(F)cc(F)c2)NC(=O)Cn2nc(C(F)F)c3c2C(F)(F)CCC3(F)F)ccc1F", "note": "[Compound 19C, (S)-5-(4-(1-(2-(3-(difluoromethyl)-4,4,7,7-tetrafluoro-4,5,6,7-tetrahydro-1H-indazol-1-yl)acetamido)-2-(3,5-difluorophenyl)ethyl)-2-(4-oxopiperidin-1-yl)pyrimidin-5-yl)-2-fluorobenzamide]", "values": [{"measurement": "inhibition at 3 µM", "setting": "HIV-IIIb", "value": 26, "unit": "%"}, {"measurement": "CC50 at 5 days", "setting": "[1]", "value": "> 51.5", "unit": "µM"}]}, {"smiles": "COCCNc1ncc(-c2ccc(F)c(C(N)=O)c2)c([C@@H](Cc2cc(F)cc(F)c2)NC(=O)Cn2nc(C(F)(F)F)c3c2CCCC3)n1", "note": "[Compound 11J, (R)-5-(4-(2-(3,5-difluorophenyl)-1-(2-(3-(trifluoromethyl)-4,5,6,7-tetrahydro-1H-indazol-1-yl)acetamido)ethyl)-2-((2-methoxyethyl)amino)pyrimidin-5-yl)-2-fluorobenzamide]", "values": [{"measurement": "inhibition at 3 µM", "setting": "HIV-IIIb", "value": 0, "unit": "%"}, {"measurement": "CC50 at 5 days", "setting": "[1]", "value": 16.3, "unit": "µM"}]}, {"smiles": "Nc1ccc(-c2ccc(Oc3ccccc3)cc2)c(C(Cc2cc(F)cc(F)c2)NC(=O)Cc2c[nH]c3ccc(F)cc23)n1", "note": "(stereo not shown) [Compound 7, N-(1-(6-amino-3-(4-phenoxyphenyl)pyridin-2-yl)-2-(3,5-difluorophenyl)ethyl)-2-(5-fluoro-1H-indol-3-yl)acetamide]", "values": [{"measurement": "inhibition at 3 µM", "setting": "HIV-IIIb", "value": 37, "unit": "%"}, {"measurement": "CC50 at 5 days", "setting": "[1]", "value": 11.5, "unit": "µM"}]}, {"smiles": "NC(=O)c1cc(-c2cnc(N3CC4(COC4)C3)nc2[C@H](Cc2cc(F)cc(F)c2)NC(=O)Cn2nc(C(F)F)c3c2C(F)(F)CCC3(F)F)ccc1F", "note": "[Compound 15B, (S)-5-(4-(1-(2-(3-(difluoromethyl)-4,4,7,7-tetrafluoro-4,5,6,7-tetrahydro-1H-indazol-1-yl)acetamido)-2-(3,5-difluorophenyl)ethyl)-2-(2-Oxa-6-azaspiro[3.3]heptan-6-yl)pyrimidin-5-yl)-2-fluorobenzamide]", "values": [{"measurement": "inhibition at 3 µM", "setting": "HIV-IIIb", "value": 70, "unit": "%"}, {"measurement": "CC50 at 5 days", "setting": "[1]", "value": 36.3, "unit": "µM"}]}, {"smiles": "COCCNc1ncc(-c2ccc(F)c(C(N)=O)c2)c([C@H](Cc2cc(F)cc(F)c2)NC(=O)Cn2nc(C(F)F)c3c2C(F)(F)CCC3(F)F)n1", "note": "[Compound 12E, (S)-5-(4-(1-(2-(3-(difluoromethyl)-4,4,7,7-tetrafluoro-4,5,6,7-tetrahydro-1H-indazol-1-yl)acetamido)-2-(3,5-difluorophenyl)ethyl)-2-((2-methoxyethyl)amino)pyrimidin-5-yl)-2-fluorobenzamide]", "values": [{"measurement": "inhibition at 3 µM", "setting": "HIV-IIIb", "value": 86, "unit": "%"}, {"measurement": "CC50 at 5 days", "setting": "[1]", "value": 18.2, "unit": "µM"}]}, {"smiles": "Nc1ccc(-c2cccc(S(N)(=O)=O)c2)c(C(Cc2cc(F)cc(F)c2)NC(=O)Cc2c[nH]c3ccc(F)cc23)n1", "note": "(stereo not shown) [Compound 5, N-(1-(6-amino-3-(3-sulfamoylphenyl)pyridin-2-yl)-2-(3,5-difluorophenyl)ethyl)-2-(5-fluoro-1H-indol-3-yl)acetamide]", "values": [{"measurement": "inhibition at 3 µM", "setting": "HIV-IIIb", "value": 87, "unit": "%"}, {"measurement": "CC50 at 5 days", "setting": "[1]", "value": 28.7, "unit": "µM"}]}]}
